Values of other authors, collected in patent US20050205101A1, “Combined pharmocological and surgical method and system for the treatment of eye disorders” (priority 2002, published 2005).
Where a name gives a salt, the structure may show the parent alone.

Tests used:
[1] = test system: intraocular pressure (IOP); details: used topically, elevated IOP; van Alphen 1976
presbyopic patient = details: presbyopia, administration to the eye; Neufeld US 5,488,050
emmetropic eye = details: typical concentration of about 4%

In the case of `CC(C)(C)NC[C@H](O)COc1cccc2c1CCCC2=O` [levobunolol], the “intraocular pressure (IOP)” value [1] is listed as “lower the IOP”.
For `CC(C)NCC(O)COc1ccc(CCOCC2CC2)cc1` (centres unmarked) [betaxolol], the “intraocular pressure (IOP)” value [1] is given as “lower the IOP”.
For `CC(C)(C)NC[C@H](O)COc1nsnc1N1CCOCC1` [Timolol], the tonic accommodation (accommodation in humans; unfocused eyes, subjects with mean age of 23, Nyberg 1976) is given as “net increase in tonic accommodation”, the “intraocular pressure (IOP)” value [1] is given as “lower the IOP” and the “vision of presbyopic subject” value (presbyopic patient) is given as “improved”.
For `CC(=O)Oc1cc(C(C)C)c(OCCN(C)C)cc1C` [thymoxamine], the gain in accommodation (accommodation in humans; treated subjects, Zetterstrom 1987) is given as “transient gain in accommodation”.
For `CC[C@@H]1C(=O)OC[C@@H]1Cc1cncn1C` [Pilocarpine hydrochloride, pilocarpine hydrochloride], the “adverse side effect on refraction” value (emmetropic eye) is given as “becomes myopic” and the “near and distant vision” value (emmetropic eye) is given as “enhanced near vision but at the sacrifice of distant vision”.
